Data on three molecules can be found in US20100105641A1, “Oral Contraceptive Spray” (priority 2006, published 2010).

The conditions of series [1]: human, in vivo. How it is done: Sixteen healthy female subjects were treated with 0.1 ml of the oral spray as described in Example 1 or with Marvelon® tablets (150 μg desogestrel, 30 μg ethinyl estradiol) in a cross over design. The spray was administered sublingually. Marvelon® was ingested. Serum concentration versus time profiles were obtained for etonogestrel and plasma concentration versus time profiles were obtained for ethinyl estradiol. FIGS. 2, 3, 4 and 5 show the average values of the serum/plasma concentrations versus time profiles.
This leads to the conclusion that a lower dose of either etonogestrel, or ethinyl estradiol, or both is possible for oral mucosal administration.

Series [2] in a line: Cross-over study in sixteen healthy female subjects: sublingual oral spray (75 μg etonogestrel) vs ingested Cerazette tablets, serum concentration versus time profiles. It counts as in vivo, human. The note with it: FIGS. 6 and 7; 75 μg etonogestrel spray vs Cerazette tablet. On the procedure:
Sixteen healthy female subjects were treated with 0.1 ml of oral spray comprising the liquid as depicted in table 6 to administer 75 μg etonogestrel, or with Cerazette® tablets (75 μg desogestrel) in a cross over design. The spray has been administered sublingually. Cerazette® has been ingested. Serum concentration versus time profiles were obtained for etonogestrel.
This leads to the conclusion that a lower dose of either etonogestrel is possible for oral mucosal administration to achieve a similar pharmacological effect.

The conditions of series [3]: exposure of etonogestrel after oral ingestion as its prodrug desogestrel; cited from earlier work.
The procedure of series [4]: Solutions were prepared essentially according to the procedure as described in Example 1. The solubility of each one of the active ingredients desogestrel, 3-β-hydroxydesogestrel, 3-keto desogestrel and ethinyl estradiol in these solutions was tested.

Consider `C#C[C@]1(O)CC[C@H]2[C@@H]3CCC4=CC(=O)CC[C@@H]4[C@H]3C(=C)C[C@@]21CC` [Etonogestrel, 13-ethyl-11methylene-17β-hydroxy-18,19-dinor-17α-pregnen-3-one], for which the “levels of etonogestrel in serum, oral mucosal administration compared to oral ingestion of equivalent amount of desogestrel using a tablet” value in series [1] was “much higher levels”. The “levels of etonogestrel in serum, oral mucosal administration compared to oral ingestion of an equivalent amount of desogestrel using a tablet” value in series [2] is “much higher levels”. Also, the oral bioavailability entry in series [3] is listed as “about 80%”.
As to `C#C[C@]1(O)CC[C@H]2[C@@H]3CCc4cc(O)ccc4[C@H]3CC[C@@]21C` [Ethinyl Estradiol, ethinyl estradiol], the “levels of ethinyl estradiol in plasma, oral mucosal administration compared to oral ingestion of equivalent amount using a tablet” value in series [1] is listed as “much higher levels”.
Consider `C#C[C@]1(O)CC[C@H]2[C@@H]3CCC4=C[C@@H](O)CC[C@@H]4[C@H]3C(=C)C[C@@]21CC` [3-β-Hydroxy-desogestrel, 3-β-hydroxydesogestrel], for which, in series [4], the “Solubility in Liquid 1” value is listed as “≧8.8 mg/mL”, the “Solubility in Liquid 2” value was “≧7.0 mg/mL”, the “Solubility in Liquid 3” value was “≧6.1 mg/mL” and the “Solubility in Liquid 4” value is given as “≧6.9 mg/mL”. The “Solubility in Liquid 5” value in series [4] is reported as “≧8.7 mg/mL”.
